Source: patent US20060025346A1, “Permeability enhancer” (priority 2004, published 2006)
Entries after “also recorded” stand apart in the source; their conditions may differ.

How the values were obtained:
Caco-2 cell monolayer = details: literature reports; cited from earlier work

SMILES: CCCCCCCCCC(=O)[O-].[Na+] [sodium caprate]
- permeability enhancing effect on high molecular weight model substance FD-10 (relative Papp) (MDCK cells): nonspecifically increased the permeability; also recorded: marked permeability enhancing effect
- permeability enhancing effect on low molecular weight model substance Flu (relative Papp) (MDCK cells): nonspecifically increased the permeability; also recorded: marked permeability enhancing effect
- permeability enhancing effect on low molecular weight model substance LY (relative Papp) (MDCK cells): nonspecifically increased the permeability; also recorded: marked permeability enhancing effect
- side effects / cell damage due to relatively strong ability to open tight junctions (Caco-2 cell monolayer): risk of cell damage have been observed
